Assay results published in publication PMC4491112 (Cancer chemotherapy and pharmacology, 2011).
Entries after “also recorded” stand apart in the source; their conditions may differ. Like-named read-outs stand apart in the source and are kept apart here.

What was measured:
[1] = high-fat breakfast vs fasting, P < 0.001; cited from earlier work
Adverse events and ECG = assay type: in vivo, human
[2] = Adverse events, laboratory abnormalities and ECG; assay type: in vivo, human; conditions: continual treatment phase, 45 mg
[3] = fasting state, two other phase 1 studies, CV 56%; cited from earlier work
[4] = highly soluble, highly permeable class; cited from earlier work
[5] = assay type: in vivo, human; conditions: 20 mg oral
[6] = administered on days 1 and 4 of a weekly schedule; cited from earlier work
advanced solid tumors = assay: Tumor response by RECIST version 1.0; assay type: in vivo, human
[7] = 20 mg, all patients (n = 36), any grade
[8] = 20 mg, high-fat breakfast (n = 36), any grade
[9] = 20 mg, high-fat breakfast, any grade
[10] = 20 mg, normal breakfast (n = 34), any grade
[11] = 20 mg, normal breakfast, any grade
[12] = 20 mg, overnight fast (n = 34), any grade
[13] = food-effect phase, 20 mg, N = 36, Grade 3/4, regardless of study drug relationship
[14] = food-effect phase, 20 mg, N = 36, any grade, regardless of study drug relationship
[15] = food-effect phase, 20 mg, any grade
[16] = N = 29, Grade 3/4, regardless of study drug relationship
[17] = N = 29, any grade, regardless of study drug relationship

In the case of `O=C(CCCCCCC(=O)Nc1ccccc1)NO` [vorinostat], the “delay in Tmax by food” value [1] is listed as 2.5 h.
For `Cc1[nH]c2ccccc2c1CCNCc1ccc(/C=C/C(=O)NO)cc1` [panobinostat, Panobinostat], the Panobinostat-related fatigue (Adverse events and ECG; [7]) was 16 (44.4) n (%), the Panobinostat-related nausea (Adverse events and ECG; [7]) was 11 (30.6) n (%) and the Panobinostat-related vomiting (Adverse events and ECG; [7]) was 7 (19.4) n (%). For the same compound, the “drug-related diarrhea, frequency” value (Adverse events and ECG; 20 mg, fasting, any grade) was 5.9%, the “drug-related nausea, frequency” value (Adverse events and ECG; 20 mg, fasting, any grade) was 14.7% and the “drug-related vomiting, frequency” value (Adverse events and ECG; 20 mg, fasting, any grade) was 14.7%. The Panobinostat-related fatigue (Adverse events and ECG; [8]) was 5 (13.9) n (%), the Panobinostat-related nausea (Adverse events and ECG; [8]) was 3 (8.3) n (%) and the Panobinostat-related vomiting (Adverse events and ECG; [8]) was 1 (2.8) n (%). The “drug-related diarrhea, frequency” value (Adverse events and ECG; [9]) was 0%, the “drug-related fatigue, frequency” value (Adverse events and ECG; [9]) was 13.9% and the “drug-related nausea, frequency” value (Adverse events and ECG; [9]) was 8.3%. For the same compound, the “drug-related vomiting, frequency” value (Adverse events and ECG; [9]) was 2.8%, the Panobinostat-related fatigue (Adverse events and ECG; [10]) was 10 (29.4) n (%) and the Panobinostat-related nausea (Adverse events and ECG; [10]) was 8 (23.5) n (%). For the same compound, the Panobinostat-related vomiting (Adverse events and ECG; [10]) was 5 (14.7) n (%), the “drug-related diarrhea, frequency” value (Adverse events and ECG; [11]) was 8.8% and the “drug-related fatigue, frequency” value (Adverse events and ECG; [11]) was 29.4%. For the same compound, the “drug-related nausea, frequency” value (Adverse events and ECG; [11]) was 23.5%, the “drug-related vomiting, frequency” value (Adverse events and ECG; [11]) was 14.7% and the Panobinostat-related fatigue (Adverse events and ECG; [12]) was 1 (2.9) n (%). For the same compound, the Panobinostat-related nausea (Adverse events and ECG; [12]) was 5 (14.7) n (%), the Panobinostat-related vomiting (Adverse events and ECG; [12]) was 5 (14.7) n (%) and the “drug-related fatigue, frequency” value (Adverse events and ECG; 20 mg, overnight fast, any grade) was 2.9%. The “patients with SAEs” value (Adverse events and ECG; food-effect phase, 20 mg) was “seven”, the “reported grade 3 or 4 AEs” value (Adverse events and ECG; food-effect phase, 20 mg) was “eight” and the “QTcF >480 ms or >60 ms increase from baseline” value (Adverse events and ECG; food-effect phase, 20 mg, 12-lead ECG) was “no QTcF >480 ms or >60 ms increase from baseline was observed”. The Abdominal pain (Adverse events and ECG; [13]) was 0 (0) n (%), the Constipation (Adverse events and ECG; [13]) was 0 (0) n (%) and the Diarrhea (Adverse events and ECG; [13]) was 1 (2.8) n (%). For the same compound, the Fatigue (Adverse events and ECG; [13]) was 3 (8.3) n (%), the Headache (Adverse events and ECG; [13]) was 0 (0) n (%) and the Nausea (Adverse events and ECG; [13]) was 2 (5.6) n (%). The Pyrexia (Adverse events and ECG; [13]) was 0 (0) n (%), the Thrombocytopenia (Adverse events and ECG; [13]) was 0 (0) n (%) and the Total adverse events (Adverse events and ECG; [13]) was 8 (22.2) n (%). For the same compound, the Vomiting (Adverse events and ECG; [13]) was 2 (5.6) n (%), the Abdominal pain (Adverse events and ECG; [14]) was 5 (13.9) n (%) and the Constipation (Adverse events and ECG; [14]) was 7 (19.4) n (%). For the same compound, the Diarrhea (Adverse events and ECG; [14]) was 7 (19.4) n (%), the Fatigue (Adverse events and ECG; [14]) was 18 (50.0) n (%) and the Headache (Adverse events and ECG; [14]) was 6 (16.7) n (%). The Nausea (Adverse events and ECG; [14]) was 15 (41.7) n (%), the Pyrexia (Adverse events and ECG; [14]) was 5 (13.9) n (%) and the Thrombocytopenia (Adverse events and ECG; [14]) was 5 (13.9) n (%). For the same compound, the Total adverse events (Adverse events and ECG; [14]) was 34 (94.4) n (%), the Vomiting (Adverse events and ECG; [14]) was 10 (27.8) n (%) and the “Fatigue, frequency” value (Adverse events and ECG; [15]) was 50%. The “Nausea, frequency” value (Adverse events and ECG; [15]) was 41.7%, the “Thrombocytopenia, frequency” value (Adverse events and ECG; [15]) was 13.9% and the “Vomiting, frequency” value (Adverse events and ECG; [15]) was 27.8%. For the same compound, the “study-drug related SAEs” value (Adverse events and ECG; food-effect phase, 20 mg, grade 3 fatigue and grade 3 vomiting) was “two”, the “patients discontinued due to adverse events” value (Adverse events and ECG; food-effect phase, grade 3 fatigue and nausea/vomiting following a normal breakfast) was “one” and the “Fatigue, overall frequency” value [2] was 48.3%. The “Nausea, overall frequency” value [2] was 37%, the “Vomiting, overall frequency” value [2] was 31.0% and the “frequency of grade 3 and 4 AEs” value [2] was 65.5%. For the same compound, the “grade 3/4 biochemical abnormality: hypophosphatemia” value [2] was 10.3%, the “grade 3/4 newly occurring or worsened hematologic laboratory abnormality: decreased platelet count” value [2] was 44.8% and the Abdominal pain [2, 16] was 1 (3.4) n (%). The Anemia [2, 16] was 1 (3.4) n (%), the Anorexia [2, 16] was 0 (0.0) n (%) and the Constipation [2, 16] was 0 (0.0) n (%). For the same compound, the Decreased platelet count [2, 16] was 3 (10.3) n (%), the Diarrhea [2, 16] was 1 (3.4) n (%) and the Dyspnea [2, 16] was 0 (0.0) n (%). The Fatigue [2, 16] was 5 (17.2) n (%), the Headache [2, 16] was 0 (0.0) n (%) and the Nausea [2, 16] was 1 (3.4) n (%). For the same compound, the Pyrexia [2, 16] was 0 (0.0) n (%), the Thrombocytopenia [2, 16] was 11 (37.9) n (%) and the Total adverse events [2, 16] was 19 (65.5) n (%). The Vomiting [2, 16] was 2 (6.9) n (%), the Abdominal pain [2, 17] was 6 (20.7) n (%) and the Anemia [2, 17] was 5 (17.2) n (%). For the same compound, the Anorexia [2, 17] was 10 (34.5) n (%), the Constipation [2, 17] was 3 (10.3) n (%) and the Decreased platelet count [2, 17] was 6 (20.7) n (%). For the same compound, the Diarrhea [2, 17] was 8 (27.6) n (%), the Dyspnea [2, 17] was 7 (24.1) n (%) and the Fatigue [2, 17] was 14 (48.3) n (%). The Headache [2, 17] was 5 (17.2) n (%), the Nausea [2, 17] was 11 (37.9) n (%) and the Pyrexia [2, 17] was 3 (10.3) n (%). For the same compound, the Thrombocytopenia [2, 17] was 15 (51.7) n (%), the Total adverse events [2, 17] was 26 (89.7) n (%) and the Vomiting [2, 17] was 9 (31.0) n (%). For the same compound, the “Thrombocytopenia, frequency” value ([2]; any grade) was 51.7%, the “Thrombocytopenia, frequency” value ([2]; grade 3/4) was 37.9% and the “patients with QTc-interval abnormalities” value ([2]; QTcF >500 ms and/or increase >60 ms from baseline) was “two”. The “mean AUC0–∞” value [3] was 183 ng·h/mL, the “Biopharmaceutics Classification System class” value [4] was “Class I like” and the “effect of prandial state on mean elimination half-life” value ([5]; fasting vs high-fat vs normal breakfast) was “not altered; also recorded: unaltered”. For the same compound, the “reduction of systemic exposure following food” value ([5]; food vs fasting) was 14–16%, the “interpatient variability of exposure (coefficient of variation)” value ([5]; with or without food) was 59% and the Cmax reduction ([5]; high-fat breakfast vs fasting) was 44%. For the same compound, the “Tmax, median difference (range)” value ([5]; high-fat breakfast/fasting) was 2.48 (–2.00 to 7.02) h, the AUC(0-inf) ([5]; human, plasma, po, 20 mg, AUC0–∞, mean (CV, %), fasting (n = 33)) was 176 ng·h/mL and the Cmax ([5]; human, plasma, po, 20 mg, Cmax, mean (CV, %), fasting (n = 33)) was 23 ng/mL. The Tmax ([5]; human, plasma, po, 20 mg, Tmax, median (range), fasting (n = 33)) was 1.5 h, the half-life ([5]; human, plasma, po, 20 mg, t1/2, mean (CV, %), fasting (n = 33)) was 14.5 h and the Cmax reduction ([5]; normal breakfast vs fasting) was 36%. The “Tmax, median difference (range)” value ([5]; normal breakfast/fasting) was 1.45 (–2.50 to 2.02) h, the accumulation [6] was “did not accumulate” and the “progressive disease, share of patients” value (advanced solid tumors; N = 36, RECIST) was 58.3%. The “partial response, share of patients” value (advanced solid tumors; N = 36, best response, RECIST) was 2.8% and the “stable disease, share of patients” value (advanced solid tumors; N = 36, best response, RECIST) was 16.7%.
